Results reported in patent publication US10738028B2, “Spiro three-membered ring, spiro five-membered ring peptide deformylase inhibitor and use thereof in antibacteria and anti-tumor” (priority 2016, dated 2020).

Columns and labels:
Type in all cases: cell-based
[1] = system: Enterococcus faecalis (EFA); assay: MIC, two-fold agar dilution (CLSI), clinical isolates
In short: (§1)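 CLSI two-fold agar dilution; MIC of test samples read per tested strain.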

[2] = system: Enterococcus faecium (EFM); assay: as above
In short: as §1

[3] = system: Escherichia coli (including ESBLs, non-ESBLs); assay: as above
In short: as §1

[4] = system: Moraxella catarrhalis (BCA); assay: as above
In short: as §1

[5] = system: Streptococcus pneoumoniae (SPN); assay: as above
In short: as §1

[6] = system: methicillin-resistant Staphylococcus aureus (MRSA); assay: as above
In short: as §1

[7] = system: methicillin-resistant Staphylococcus epidermidis (MRSE); assay: as above
In short: as §1

[8] = system: methicillin-sensitive Staphylococcus aureus (MSSA); assay: as above
In short: as §1

[9] = system: methicillin-sensitive Staphylococcus epidermidis (MSSE); assay: as above
In short: as §1

[10] = system: HCT-116 colorectal cancer cell line; assay: CCK-8 proliferation inhibition; conditions: Homo sapiens, HCT-116, 72 h, concentration of 30 μM; 72 hours; CCK-8; read-out: HCT116 inhibition rate/%
In short: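 Cells were plated overnight at 2000 cells/well, then compound in culture medium was added at a range of final concentrations. After 72 hours in a CO2 incubator, medium was replaced with 1:10 CCK-8 solution for the read-out.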

SMILES: CCCC[C@H](CC(=O)NO)C(=O)N1CC2(CC2)C[C@@H]1c1nc2ccccc2[nH]1 [Example 59, (R)-3-((R)-6-(1H-benzimidazol-2-yl)-5-azaspiro[2.4]heptane-5-carbonyl)-N-hydroxyheptanamide]
- Anti-bacterial activity (MIC), strain EFA 15-1 ([1]; clinical isolate EFA 15-1): > 32 µg/mL
- Anti-bacterial activity (MIC), strain EFA 15-2 ([1]; clinical isolate EFA 15-2): > 32 µg/mL
- Anti-bacterial activity (MIC), strain EFA 15-3 ([1]; clinical isolate EFA 15-3): > 32 µg/mL
- Anti-bacterial activity (MIC), strain EFA 15-4 ([1]; clinical isolate EFA 15-4): > 32 µg/mL
- Anti-bacterial activity (MIC), strain EFA 15-5 ([1]; clinical isolate EFA 15-5): > 32 µg/mL
- Anti-bacterial activity (MIC), strain EFA 15-6 ([1]; clinical isolate EFA 15-6): > 32 µg/mL
- Anti-bacterial activity (MIC), strain EFA 15-9 ([1]; clinical isolate EFA 15-9): > 32 µg/mL
- Anti-bacterial activity (MIC), strain EFM 15-1 ([2]; clinical isolate EFM 15-1): > 32 µg/mL
- Anti-bacterial activity (MIC), strain EFM 15-2 ([2]; clinical isolate EFM 15-2): > 32 µg/mL
- Anti-bacterial activity (MIC), strain EFM 15-3 ([2]; clinical isolate EFM 15-3): > 32 µg/mL
- Anti-bacterial activity (MIC), strain EFM 15-4 ([2]; clinical isolate EFM 15-4): > 32 µg/mL
- Anti-bacterial activity (MIC), strain EFM 15-5 ([2]; clinical isolate EFM 15-5): 16 µg/mL
- Anti-bacterial activity (MIC), strain EFM 15-6 ([2]; clinical isolate EFM 15-6): 16 µg/mL
- Anti-bacterial activity (MIC), strain ECO+ 15-1 ([3]; clinical isolate ECO+ 15-1): > 32 µg/mL
- Anti-bacterial activity (MIC), strain ECO+ 15-2 ([3]; clinical isolate ECO+ 15-2): > 32 µg/mL
- Anti-bacterial activity (MIC), strain ECO+ 15-3 ([3]; clinical isolate ECO+ 15-3): > 32 µg/mL
- Anti-bacterial activity (MIC), strain ECO+ 15-4 ([3]; clinical isolate ECO+ 15-4): > 32 µg/mL
- Anti-bacterial activity (MIC), strain ECO− 15-1 ([3]; clinical isolate ECO− 15-1): > 32 µg/mL
- Anti-bacterial activity (MIC), strain ECO− 15-2 ([3]; clinical isolate ECO− 15-2): > 32 µg/mL
- Anti-bacterial activity (MIC), strain ECO− 15-3 ([3]; clinical isolate ECO− 15-3): > 32 µg/mL
- Anti-bacterial activity (MIC), strain ECO− 15-4 ([3]; clinical isolate ECO− 15-4): > 32 µg/mL
- Anti-bacterial activity (MIC), strain BCA 14-1 ([4]; clinical isolate BCA 14-1): > 32 µg/mL
- Anti-bacterial activity (MIC), strain BCA 14-4 ([4]; clinical isolate BCA 14-4): > 32 µg/mL
- Anti-bacterial activity (MIC), strain BCA 14-5 ([4]; clinical isolate BCA 14-5): 16 µg/mL
- Anti-bacterial activity (MIC), strain BCA 14-6 ([4]; clinical isolate BCA 14-6): > 32 µg/mL
- Anti-bacterial activity (MIC), strain BCA 14-7 ([4]; clinical isolate BCA 14-7): > 32 µg/mL
- Anti-bacterial activity (MIC), strain BCA 14-8 ([4]; clinical isolate BCA 14-8): > 32 µg/mL
- Anti-bacterial activity (MIC), strain BCA 14-10 ([4]; clinical isolate BCA 14-10): > 32 µg/mL
- Anti-bacterial activity (MIC), strain SPN 16-2 ([5]; clinical isolate SPN 16-2): 8 µg/mL
- Anti-bacterial activity (MIC), strain SPN 16-4 ([5]; clinical isolate SPN 16-4): 8 µg/mL
- Anti-bacterial activity (MIC), strain MRSA 15-1 ([6]; clinical isolate MRSA 15-1): > 32 µg/mL
- Anti-bacterial activity (MIC), strain MRSA 15-2 ([6]; clinical isolate MRSA 15-2): > 32 µg/mL
- Anti-bacterial activity (MIC), strain MRSA 15-3 ([6]; clinical isolate MRSA 15-3): > 32 µg/mL
- Anti-bacterial activity (MIC), strain MRSA 15-4 ([6]; clinical isolate MRSA 15-4): > 32 µg/mL
- Anti-bacterial activity (MIC), strain MRSE 15-1 ([7]; clinical isolate MRSE 15-1): > 32 µg/mL
- Anti-bacterial activity (MIC), strain MRSE 15-2 ([7]; clinical isolate MRSE 15-2): > 32 µg/mL
- Anti-bacterial activity (MIC), strain MRSE 15-3 ([7]; clinical isolate MRSE 15-3): > 32 µg/mL
- Anti-bacterial activity (MIC), strain MRSE 15-7 ([7]; clinical isolate MRSE 15-7): > 32 µg/mL
- Anti-bacterial activity (MIC), strain MSSA 15-3 ([8]; clinical isolate MSSA 15-3): > 32 µg/mL
- Anti-bacterial activity (MIC), strain MSSA 15-4 ([8]; clinical isolate MSSA 15-4): > 32 µg/mL
- Anti-bacterial activity (MIC), strain MSSA 15-5 ([8]; clinical isolate MSSA 15-5): > 32 µg/mL
- Anti-bacterial activity (MIC), strain MSSA 15-6 ([8]; clinical isolate MSSA 15-6): > 32 µg/mL
- Anti-bacterial activity (MIC), strain MSSE 15-3 ([9]; clinical isolate MSSE 15-3): > 32 µg/mL
- Anti-bacterial activity (MIC), strain MSSE 15-4 ([9]; clinical isolate MSSE 15-4): > 32 µg/mL
- Anti-bacterial activity (MIC), strain MSSE 15-5 ([9]; clinical isolate MSSE 15-5): > 32 µg/mL
- Anti-bacterial activity (MIC), strain MSSE 15-6 ([9]; clinical isolate MSSE 15-6): > 32 µg/mL
- inhibition at 30 µM [10]: 12%
